Source: patent US10081632B2, “Substituted tetrahydropyrido[3′,2′:4,5]pyrrolo[1,2-α]pyrazine-2-carboxamides as RSK inhibitors” (Phoenix Molecular Designs, priority 2016, dated 2018)
One block for each molecule: values may come before it.

What was measured:
CD34+ cells = experiment: Colony forming unit hematopoietic stem cell assay; format: cell-based, human; settings: for IC50: Homo sapiens, Hematopoietic stem cell, CD34+ cells from peripheral blood, read-out: CD34+ (PB) IC50; for Therapeutic Window: ratio IC50 against CD34+ cells and MDA-MB-231 cells (SA)
Protocol: The hematopoietic colony forming cell assay was conducted based on a protocol outlined by StemCell Technologies. […] Following the addition of CD34^+ cells isolated from human cord blood or peripheral blood (StemCell Technologies) at a final concentration of 5×10^2 cells per dish, the tubes were vortexed and allowed to stand for 5 minutes at room temperature. Next, the MethoCult mixtures were dispensed into 35 mm dishes (Corning Incorporated) through blunt end needles (StemCell Technologies) and 5 ml syringes (BD Biosciences) at a volume of 1.1 ml per dish. The medium was evenly distributed across the surface of each dish by gentle tilting and rotation. The dishes were then placed in a 100 mm culture dish (Grenier Bio-One) containing additional 35 mm dishes with sterile water to maintain humidity. […] The number of myeloid and erythroid derived colonies in both the treated and control dishes were counted and compared.

MDA-MB-231 cells [1] = experiment: Combination with paclitaxel, monolayer growth (crystal violet); settings: MDA-MB-231 cells + 0.3 nM PTX, 5 days
Protocol: 1×10^3 cells per well were seeded for a final volume of 200 μl per well and plates were incubated for 5 days at 37° C. in a humidified incubator with 5% CO2. Following the incubation period, cell survival was quantified by Alamar blue assay (Life Technologies). Briefly, media from each well was replaced with 100 μl of phosphate buffer saline (PBS, Life Technologies) and cells were incubated with 5% Alamar blue, which incorporates a propriety redox indicator that changes colour in response to metabolic activity, for up to 2 hours. During this period of incubation, the absorbance at 570 nm and 600 nm was measured at various time points, depending on the cell line or sample. Percent survival was calculated by comparing the absorbance ratio of the test well to the control well multiplied by 100%, as indicated in the following formula:
Following, plates were prepared for crystal violet staining. To begin, 100 μl of an 8% formaldehyde (Alfa Aesar) solution diluted in PBS was added to each well and plates were stored at 4° C. overnight. Next, the formaldehyde solution was discarded and the wells were washed with 200 μl ultrapure water per well three times. Following, 50 μl of a 0.5% crystal violet solution (0.5% w/v crystal violet (Alfa Aesar), 25% methanol (VWR)) was added to each well and incubated at room temperature for 20 minutes. The crystal violet solution was discarded and wells were washed with 200 μl ultrapure water per well three times. Next, 50 μl of a 5% sodium dodecyl sulphate (SDS) (Alfa Aesar) was added to each well and the absorbance at 590 nm was measured.

MDA-MB-231 cells [2] = experiment: Soft agar growth inhibition assay; format: cell-based; settings: Homo sapiens
T47D cells [3] = experiment: Monolayer growth inhibition, Alamar blue assay; format: cell-based, Human; settings: Homo sapiens; T47D (ER/PR), 5 days, single dose on day 1
Source text: (§1) In all instances a single dose was given on day 1 of the experiment.

SUM149-PTXR cells [4] = experiment: Monolayer growth inhibition, Alamar blue assay; format: cell-based, Human; settings: Homo sapiens; SUM149-PTXR (TNBC, BRCA Mutant), 5 days, single dose on day 1
Source text: as §1

All cell lines [5] = experiment: Monolayer growth inhibition, Alamar blue assay, range over all cell lines; format: cell-based; settings: 120 h; range of IC50 over all cell lines of the table; read-out: IC50 Values - Alamar Blue (5 Days), Range, All
Source text: as §1

All cell lines [6] = experiment: Monolayer growth inhibition, crystal violet assay, range over all cell lines; format: cell-based; settings: 120 h; range of IC50 over all cell lines of the table; read-out: IC50 Values - Crystal Violet (5 Days), Range, All
Source text: (§2) In all instances a single dose was given on day 1 of the experiment. […] Complete (100%) growth suppression was achievable with several of the compounds in multiple different cell lines.

MDA-MB-468 cells [7] = experiment: Soft agar growth inhibition assay; format: cell-based, Human; settings: Homo sapiens; MDA-MB-468 (TNBC), 14-22 days
PC3 cells [8] = experiment: Monolayer growth inhibition, crystal violet assay; format: cell-based; settings: Homo sapiens, PC-3; PC3 (Prostate), 5 days, single dose on day 1
Source text: as §1

MDA-MB-231 cells [9] = experiment: Monolayer growth inhibition, crystal violet assay; format: cell-based; settings: Homo sapiens; MDA-MB-231 (TNBC), 5 days, single dose on day 1
Source text: as §1

4T1 cells [10] = experiment: Monolayer growth inhibition, crystal violet assay; format: cell-based; settings: Mus musculus; 4T1 (TNBC), 5 days, single dose on day 1
Source text: as §1

HCC1143 cells [11] = experiment: Monolayer growth inhibition, crystal violet assay; format: cell-based; settings: Homo sapiens; HCC1143 (TNBC), 5 days, single dose on day 1
Source text: as §1

SUM149-PTXR cells [12] = experiment: Monolayer growth inhibition, crystal violet assay; format: cell-based; settings: Homo sapiens; SUM149-PTXR (TNBC, BRCA Mutant), 5 days, single dose on day 1
Source text: as §1

MDA-MB-435 cells [13] = experiment: Monolayer growth inhibition, crystal violet assay; format: cell-based; settings: Homo sapiens; MDA-MB-435 (Melanoma), 5 days, single dose on day 1
Source text: as §1

SUM149 cells [14] = experiment: Monolayer growth inhibition, crystal violet assay; format: cell-based; settings: Homo sapiens; SUM149 (TNBC, BRCA Mutant), 5 days, single dose on day 1
Source text: as §1

MDA-MB-231 cells [15] = experiment: Immuno-oncology gene expression (HLA-DRA, CIITA, CD274 mRNA); format: cell-based, Human; settings: Compound 16 2 or 4 uM, Compound 18 1, 2, or 4 uM
Source text: A key feature of cancer is low immunogenicity. This can occur by several mechanisms that allow the cells to escape immune recognition. […] HLA-DRA is a member of MHC-II genes and CIITA is the master regulator of MHC II transcription. Thus it was surprising that CIITA, which would be expected to regulate MHC II gene expression, was not altered by RSK inhibition. […] HLA-DRA is important for immune recognition while PD-L1 is involved in immune checkpoints.

[16] = system: phosphorylated Y-box binding protein-1 (YB-1) at serine 102 (P-YB-1S102); experiment: Immunoblotting of cell signalling, loss of P-YB-1 in MDA-MB-231 cells; settings: MDA-MB-231 cells, 0.01-1 uM, 96 hrs
Protocol: Following desired experimental conditions, breast cancer cell lines grown and treated in 6 well plates or 100 mm culture dishes (Grenier Bio-One) were placed on ice and the supernatant from each well was removed and the cells were washed in cold PBS. Following removal of PBS, cells were exposed to radioimmunoprecipitation assay (RIPA) buffer (50 mM Tris-HCl (pH 8), 150 mM NaCl, 1% NP-40, 0.5% sodium deoxycholate, 0.1% SDS; Fisher Scientific) supplemented with 1% phosphatase inhibitor (Fisher Scientific) and 1% protease inhibitor (Fisher Scientific) for 10 minutes. Samples were transferred to eppendorf tubes, vortexed and then centrifuged at 14 000 rpm for 10 minutes. Supernatants were collected as whole cell lysates.
To begin, the protein content of the lysates was measured using the Bicinchoninic Acid (BCA) Protein Assay Kit (Pierce), which included a protein standard curve generated with bovine serum albumin. Appropriate volumes of samples and loading buffer (50 mM Tris-HCl (pH 6.8), 2% SDS, 10% glycerol, 1% j-mercaptoethanol, 12.5 mM EDTA, 0.02% bromophenol blue) were mixed, ensuring that equal amounts of protein were loaded. For the majority of experiments in this study, 30 μg of protein per well was loaded. Samples were then resolved on SDS-PAGE (polyacrylamide gel electrophoresis) using various percentages of acrylamide gels (8%-12%), depending on the proteins of interest. SDS-PAGE was run in SDS running buffer (25 mM Tris, 192 mM glycine, 0.1% SDS) and then transferred to nitrocellulose membranes (Bio-Rad) in transfer buffer (48 mM Tris, 39 mM glycine, 20% (v/v) methanol) at 100 volts for 90 minutes at room temperature. Immunoblots were then blocked in 5% skim milk in tris-buffered saline with 0.1% Tween-20 (TBS-T; 50 mM Tris-HCl, pH 7.5, 150 mM NaCl, 0.1% (v/v) Tween-20 (Fisher Scientific)) for 1 to 2 hours. Immunoblots were then incubated with selected primary antibodies diluted in TBS-T with 0.1% gelatin (Bio-Rad) and 0.05% sodium azide (Alfa Aesar) overnight. Following washes with TBT-T 4 times for 8 to 10 minutes, immunoblots were incubated with appropriate secondary antibodies conjugated to horseradish peroxidise (Cell Signalling Technology) diluted in TBS-T plus 5% skim milk at a ratio of 1:5000 for 2 hours at room temperature. After an additional round of washes in TBS-T, immunoblots were exposed to combined enhanced chemiluminescence (ECL) reagents (Fisher Scientific) for 1 minute and developed using ChemiDoc MP Imaging System (Bio-Rad). For certain immunoblots, bands of proteins of interest were scanned and band intensity ratios were determined by densitometric analysis (ImageJ). […] Total YB-1 was used as a loading control (1:5000 Abcam). […] To assess whether cells are actively undergoing cell death, the activity of poly ADP ribose polymerase (PARP) (1:1000 CST) was also measured using the immunoblotting method.

4T1 cells [17] = experiment: Soft agar growth inhibition assay; format: cell-based; settings: Mus musculus
Protocol: Two agar (Alfa Aesar) solutions (0.8% w/v and 0.4% w/v) were prepared in ultrapure water. The 0.8% agar solution was mixed in equal volumes with 2× media previously prepared from powder (Life Technologies) following the manufacturer's instructions and filter sterilized. The 0.8% agar and media solution was added to 24 well plates (Mandel Scientific) at 500 μl per well. The plates were placed in a humidified incubator at 37° C. with 5% CO2. Next, the 0.4% agar solution was mixed in equal volumes with 2× media. Breast cancer cell lines were added to this solution to achieve a final concentration of 2×10^4 cells per well and […] was added to each well on top of the bottom agar and media layer. […] The plates were returned to the incubator for 10-32 days, with a re-dosing of compounds or DMSO every 7 days. After 10-32 days, colonies were counted in 3 different fields of view for each well.
Representative compounds described herein were tested in the soft agar growth inhibition assay against the 4T1 breast cancer cell line.

PC3 cells [18] = experiment: Monolayer growth inhibition, Alamar blue assay; format: cell-based; settings: Homo sapiens, PC-3; PC3 (Prostate), 5 days, single dose on day 1
Source text: as §1

MDA-MB-231 cells [19] = experiment: Monolayer growth inhibition, Alamar blue assay; format: cell-based; settings: Homo sapiens; MDA-MB-231 (TNBC), 5 days, single dose on day 1
Source text: as §1

4T1 cells [20] = experiment: Monolayer growth inhibition, Alamar blue assay; format: cell-based; settings: Mus musculus; 4T1 (TNBC), 5 days, single dose on day 1
Source text: as §1

HCC1143 cells [21] = experiment: Monolayer growth inhibition, Alamar blue assay; format: cell-based; settings: Homo sapiens; HCC1143 (TNBC), 5 days, single dose on day 1
Source text: as §1

JIMT-1 cells [22] = experiment: Monolayer growth inhibition, Alamar blue assay; format: cell-based; settings: Homo sapiens; JIMT-1 (HER2), 5 days, single dose on day 1
Source text: as §1

MDA-MB-435 cells [23] = experiment: Monolayer growth inhibition, Alamar blue assay; format: cell-based; settings: Homo sapiens; MDA-MB-435 (Melanoma), 5 days, single dose on day 1
Source text: as §1

SUM149 cells [24] = experiment: Monolayer growth inhibition, Alamar blue assay; format: cell-based; settings: Homo sapiens; SUM149 (TNBC, BRCA Mutant), 5 days, single dose on day 1
Source text: as §1

MDA-MB-468 cells [25] = experiment: Monolayer growth inhibition, Alamar blue assay; format: cell-based; settings: Homo sapiens; MDA-MB-468 (TNBC), 5 days, single dose on day 1
Source text: as §1

HCC1937 cells [26] = experiment: Monolayer growth inhibition, Alamar blue assay; format: cell-based; settings: Homo sapiens; HCC1937 (TNBC, BRCA Mutant), 5 days, single dose on day 1
Source text: as §1

T47D cells [27] = experiment: Monolayer growth inhibition, crystal violet assay; format: cell-based; settings: Homo sapiens; T47D (ER/PR), 5 days, single dose on day 1
Source text: as §2

JIMT-1 cells [28] = experiment: Monolayer growth inhibition, crystal violet assay; format: cell-based; settings: Homo sapiens; JIMT-1 (HER2), 5 days, single dose on day 1
Source text: as §2

MDA-MB-468 cells [29] = experiment: Monolayer growth inhibition, crystal violet assay; format: cell-based; settings: Homo sapiens; MDA-MB-468 (TNBC), 5 days, single dose on day 1
Source text: as §2

HCC1937 cells [30] = experiment: Monolayer growth inhibition, crystal violet assay; format: cell-based; settings: Homo sapiens; HCC1937 (TNBC, BRCA Mutant), 5 days, single dose on day 1
Source text: as §2

[31] = MDA-MB-231, growth in soft agar (SA), read-out: MDA-MB-231 IC50 (SA)

IC50 (CD34+ cells): 0.0097 µM
IC50 (MDA-MB-231 cells [2]; [31]): 0.0014 µM
SMILES: CC(=O)O[C@H]1C(=O)[C@@]2(C)[C@H]([C@H](OC(=O)c3ccccc3)[C@]3(O)C[C@H](OC(=O)[C@H](O)[C@@H](NC(=O)c4ccccc4)c4ccccc4)C(C)=C1C3(C)C)[C@]1(OC(C)=O)CO[C@@H]1C[C@@H]2O [Taxol, paclitaxel, reference compound]
Therapeutic Window (CD34+ cells): 6.9X
% Survival (MDA-MB-231 cells [1]): MDA-MB-231 cells + 0.3 nM PTX: % Survival = 47.7%

IC50 (T47D cells [3]): 4.7 ± 1.7 µM
IC50 (CD34+ cells): > 20 µM
IC50 (MDA-MB-468 cells [7]): 1.1 ± 0.3 µM
IC50 (PC3 cells [8]): 3.7 ± 1.3 µM
IC50 (MDA-MB-231 cells [9]): 2.7 ± 1.3 µM
IC50 (4T1 cells [10]): 4.5 ± 0.8 µM
IC50 (HCC1143 cells [11]): 5 ± 1.1 µM
IC50 (MDA-MB-435 cells [13]): 1.2 ± 0.6 µM
IC50 (MDA-MB-231 cells [2]; [31]): 0.2 µM
IC50 (MDA-MB-231 cells [2]; MDA-MB-231 (TNBC), 14-22 days, read-out: IC50 Values - Soft Agar (14-22 Days)): 0.2 ± 0.1 µM
IC50 (4T1 cells [17]; 240 h, 4T1, 10 days, read-out: IC50 Values, 10 Days, Soft Agar): 3.3 µM
IC50 (4T1 cells [17]; 4T1 (TNBC), 14-22 days, read-out: IC50 Values - Soft Agar (14-22 Days)): 3.5 ± 0.3 µM
IC50 (PC3 cells [18]): 6.6 ± 2.3 µM
IC50 (MDA-MB-231 cells [19]): 8.7 ± 1.8 µM
IC50 (4T1 cells [20]): 5.4 ± 0.9 µM
IC50 (HCC1143 cells [21]): 7 ± 3 µM
IC50 (MDA-MB-435 cells [23]): 0.9 ± 0.5 µM
IC50 (MDA-MB-468 cells [25]): 2.7 ± 0.5 µM
IC50 (HCC1937 cells [26]): 17.4 ± 3 µM
IC50 (T47D cells [27]): 3.8 ± 0.7 µM
IC50 (MDA-MB-468 cells [29]): 1.9 ± 0.3 µM
IC50 (HCC1937 cells [30]): 12 ± 5.3 µM
SMILES: C[C@@H]1CNC(=O)c2cc3ccc(C(=O)Nc4cnn(Cc5cccc(N)c5)c4)nc3n21 [Compound 16, (R)—N-(1-(3-aminobenzyl)-1H-pyrazol-4-yl)-9-methyl-6-oxo-6,7,8,9-tetrahydropyrido[3′,2′:4,5]pyrrolo[1,2-a]pyrazine-2-carboxamide]
IC50 (SUM149-PTXR cells [4]): 2.5 ± 0.4 µM
Therapeutic Window (CD34+ cells): >100X
IC50 (All cell lines [5]): 0.9 to 17.4 µM
IC50 (All cell lines [6]): 1.2 to 13.3 µM
IC50 (SUM149-PTXR cells [12]): 3.5 ± 1.2 µM
IC50 (SUM149 cells [14]): 2.8 ± 0.9 µM
CD274 (gene encoding PD-L1) levels (MDA-MB-231 cells [15]): reduced levels of CD274
HLA-DRA mRNA (MDA-MB-231 cells [15]): elevated levels of HLA-DRA mRNA
mRNA expression of CIITA (MDA-MB-231 cells [15]): little effect
Loss of P-YB-1 [16]: dose dependent loss of P-YB-1
IC50 (JIMT-1 cells [22]): 16.3 ± 1 µM
IC50 (SUM149 cells [24]): 3.4 ± 1.8 µM
IC50 (JIMT-1 cells [28]): 13.3 ± 2.4 µM
